From US20050288307A1, “Anti-viral compounds” (priority 2002, published 2005)
pIC50: −log10 of the molar value. Read-outs that look alike come from different tables or passages of the source.

How the values were obtained:
HIV-1RoJo/PBMC = experiment: Anti-HIV efficacy in fresh human PBMCs, strain RoJo; format: cell-based
Description: (§1) Fresh PBMCs, seronegative for HIV and HBV, were isolated from screened donors (Interstate Blood Bank, Inc. Memphis, Tenn.). Cells were pelleted/washed 2-3 times by low speed centrifugation and re-suspension in PBS to remove contaminating platelets. […] Banded PBMCs were gently aspirated from the resulting interface and subsequently washed with PBS by low speed centrifugation. […] The cells were allowed to incubate at 37° C. […] IL-2 is included in the culture medium to maintain the cell division initiated by the PHA mitogenic stimulation. PBMCs were maintained in this with bi-weekly medium changes until used in the assay protocol. Cells were kept in culture for a maximum of two weeks before being deemed too old for use in assays and discarded. Monocytes were depleted from the culture as the result of adherence to the tissue culture flask.
(§2) Tritiated thymidine triphosphate (^3H-TTP, 80 Ci/mmol, NEN) was received in 1:1 dH2O:Ethanol at 1 mCi/mL. Poly rA:oligo dT template:primer (Pharmacia) was prepared as a stock solution, followed by aliquoting and storage at −20° C. The RT reaction buffer was prepared fresh on a daily basis. The final reaction mixture was prepared by combining ^3H-TTP, dH2O, poly rA:oligo dT stock and reaction buffer. This reaction mixture was placed in a round bottom microtiter plate and supernatant containing virus was added and mixed. The plate was incubated at 37° C. for 60 minutes. Following incubation, the reaction volume was spotted onto DE81 filter-mats (Wallac), in a sodium phosphate buffer or 2×SSC (Life Technologies). Next they were washed in distilled water, in 70% ethanol, and then dried. Incorporated radioactivity (counts per minute, CPM) was quantified using standard liquid scintillation techniques.

[1] = Compound cytotoxicity in PBMC assay plates (MTS cell viability); conditions: human, TC50 (concentration decreasing cell viability by 50%)
HIV-1WeJo/PBMC = experiment: Anti-HIV efficacy in fresh human PBMCs, strain WeJo; format: cell-based
Description: as §1, §2

HIV-1 = experiment: Anti-viral cell-based assays; conditions: result in words
CaMKII = format: biochemical; conditions: Table 2
[2] = Human immunodeficiency virus 1, PBMC, read-out: IC50 (concentration inhibiting virus replication by 50%)
[3] = Human immunodeficiency virus 1, PBMC, read-out: IC90 (concentration inhibiting virus replication by 90%)

Compound	TI (therapeutic index: TC50/IC50) (HIV-1RoJo/PBMC; HIV-1RoJo/PBMC)	pIC50 (HIV-1RoJo/PBMC; Human immunodeficiency virus 1, read-out: IC50 (concentration inhibiting virus replication by 50%), HIV-1RoJo/PBMC)	IC90 (HIV-1RoJo/PBMC; Human immunodeficiency virus 1, read-out: IC90 (concentration inhibiting virus replication by 90%), HIV-1RoJo/PBMC)	CC50 at 7 days ([1]; HIV-1RoJo/PBMC)	CC50 at 7 days ([1]; HIV-1WeJo/PBMC)	TI (therapeutic index: TC50/IC50) (HIV-1WeJo/PBMC; HIV-1WeJo/PBMC)	pIC50 (HIV-1WeJo/PBMC; Human immunodeficiency virus 1, read-out: IC50 (concentration inhibiting virus replication by 50%), HIV-1WeJo/PBMC)	IC90 (HIV-1WeJo/PBMC; Human immunodeficiency virus 1, read-out: IC90 (concentration inhibiting virus replication by 90%), HIV-1WeJo/PBMC)	anti-viral effectiveness as demonstrated by cell-based assays (HIV-1)	melting point	pIC50 (HIV-1RoJo/PBMC; [2])	IC90 (HIV-1RoJo/PBMC; [3])	pIC50 (CaMKII)	pIC50 (HIV-1WeJo/PBMC; [2])	IC90 (HIV-1WeJo/PBMC; [3])
Cc1nc(C)c(-c2ccnc(Nc3ccc(I)cc3)n2)s1 [Compound 21, [4-(2,4-Dimethyl-thiazol-5-yl)-pyrimidin-2-yl]-(4-iodo-phenyl)-amine]	495	7.21	100 nM	31000 nM	64000 nM	2190	7.54	48 nM	particularly effective anti-viral agents	171 to 173 °C	–	–	–	–	–
Cc1nc(N)sc1-c1ccnc(Nc2cccc([N+](=O)[O-])c2)n1 [Compound 105, [4-(2-Amino-4-methyl-thiazol-5-yl)-pyrimidin-2-yl]-(3-nitro-phenyl)-amine]	–	–	–	1600 nM	200 nM	–	–	–	particularly effective anti-viral agents	–	7.17	350 nM	< 4.00	8.30	14 nM
